Test results reported in PMC8268887, “Peptide/β-Peptoid Hybrids with Ultrashort PEG-Like Moieties: Effects on Hydrophobicity, Antibacterial Activity and Hemolytic Properties” (International Journal of Molecular Sciences, 2021).
Values after ≈ are worked out from the molar mass of the structure shown. Where two headings read alike, the source gives them in different places.

Columns and labels:
[1] = system: A. baumannii ATCC 19606; format: cell-based, Acinetobacter baumannii; conditions: ATCC 19606, 20 h
Procedure: (§1) MIC values of the peptidomimetics were evaluated by using the modified Hancock lab protocol in non-binding polystyrene microtiter plates. Bacterial suspensions of ~5 × 10^5 CFU/mL in Mueller-Hinton broth (Difco, Sparks, MD, USA) were prepared with Mg^2+ and Ca^2+ concentrations of 4 mg/L each. The compounds were dissolved in H2O and diluted in 0.01% acetic acid, 0.2% BSA (final concentration). Aliquots (11 µL) of test compounds were then transferred to wells containing bacterial suspensions (100 µL). Low-binding sterile tubes and tips (Axygen, Union City, CA, USA) were used for preparation and transfer of the solutions of the compounds. Following incubation for 20 h of the covered plates at 35 °C (±2 °C) with circular shaking at 180 rpm, the MICs were read.

[2] = system: A. baumannii NMI 3658/17; format: cell-based, Acinetobacter baumannii; conditions: NMI 3658/17, 20 h
Procedure: as §1

[3] = system: E. coli NMI 3371/16; format: cell-based, Escherichia coli; conditions: NMI 3371/16, 20 h
Procedure: as §1

[4] = system: E. coli ATCC 25922; format: cell-based, Escherichia coli; conditions: ATCC 25922, 20 h
Procedure: as §1

[5] = system: E. coli NMI 3898/15; format: cell-based, Escherichia coli; conditions: NMI 3898/15, 20 h
Procedure: as §1

[6] = system: K. pneumoniae ATCC 13883; format: cell-based
Procedure: as §1

[7] = system: E. faecalis ATCC 29212; format: cell-based; conditions: ATCC 29212, 20 h
Procedure: as §1

[8] = system: P. aeruginosa NMI 7197/19; format: cell-based, Pseudomonas aeruginosa; conditions: NMI 7197/19, 20 h
Procedure: as §1

[9] = system: P. aeruginosa PAO1; format: cell-based, Pseudomonas aeruginosa; conditions: PAO1, 20 h
Procedure: as §1

[10] = Hydrophobicity by retention in analytical RP-HPLC (% MeCN at peak elution); format: physicochemical; conditions: for % MeCN at Elution, Aeris Peptide: Phenomenex Aeris Peptide XB-C18 column; for % MeCN at Elution, Aeris Peptide / % MeCN at Elution, Luna Omega / % MeCN at Elution, Supelco Discovery: gradient 0→60% B during 15 min; for % MeCN at Elution, Luna: Phenomenex Luna C18(2) column, RP-HPLC gradient 0→60% B during 15 min, relative hydrophobicity; for % MeCN at Elution, Luna Omega: Phenomenex Luna Omega Polar C18 column; for % MeCN at Elution, Supelco Discovery: Supelco Discovery BIO Wide pore C18 column
Procedure: For each peptide/β-peptoid hybrid oligomer, the retention time in RP-HPLC was measured on four different columns (details shown in Table 2): Phenomenex Luna C18(2) column (recommended for hydrophobic compounds [49]), Phenomenex Luna Omega Polar C18 column (recommended for both very polar and non-polar compounds [50]) as well as Phenomenex Aeris Peptide XB-C18 [51] and Sigma-Aldrich Supelco Discovery BIO Wide pore C18 [52] columns, which both are recommended for analysis of peptides. The retention times of the compounds on each column were used to calculate the acetonitrile concentration at peak elution (denoted merely as % MeCN; Table 1). As expected, the % MeCN for each compound varied somewhat between the four columns.
Starting materials and solvents were acquired from commercial suppliers (Iris Biotech, Markredwitz, Germany; Fluorochem, Hadfield, UK; and Merck, Darmstadt, Germany) and used without further purification. Water used for analytical and preparative high-performance liquid chromatography (HPLC) was filtered through a 0.22-μm capsule filter using an Evoqua LaboStar Pro TWF UV system. Purity and retention time of each peptidomimetic were determined by analytical HPLC by using a Phenomenex Luna Omega Polar C18 column (150 × 4.6 mm; particle size: 3 μm; pore size: 100 Å) on a Shimadzu Prominence and Shimadzu Nexera system using an aqueous acetonitrile (MeCN, VWR, Søborg, Denmark) gradient with 0.1% trifluoroacetic acid (TFA, Iris Biotech, Markredwitz, Germany) added (eluent A: 5:95 MeCN–H2O + 0.1% TFA, eluent B: 95:5 MeCN–H2O + 0.1% TFA); a flow rate of 0.8 mL/min was used. For elution of peptidomimetics, a linear gradient of 0% to 60% B during 15 min was used with UV detection at λ = 220 nm. […] Retention time of each peptidomimetic was also determined by using a Phenomenex Luna C18(2) column (150 × 4.6 mm; particle size: 3 μm; pore size: 100 Å), a Phenomenex Aeris Peptide XB-C18 column (150 × 4.6 mm; particle size: 3.6 μm; pore size: 100 Å), and a Sigma-Aldrich Supelco Discovery BIO Wide pore C18 column (150 × 4.6 mm, particle size: 3 µm; pore size: 300 Å). For each peptidomimetic, the percentage of MeCN at peak elution was calculated from the retention time by using the following formula:(1) %MeCN =0.95 (0.6Rt/15 min)+0.05 (1−0.6Rt/15 min)

[11] = Determination of hemolytic activity; format: cell-based; conditions: red blood cell suspension in PBS buffer, human red blood cells at 400 µg/mL, 37 °C
Procedure: The lysis of human red blood cells was measured almost as previously described, albeit with modifications. In brief, a suspension of freshly drawn human red blood cells (hRBCs) was washed three times with PBS buffer and centrifuged two times for 5 min at 2500 rpm. A two-fold serial dilution of compounds in PBS buffer was prepared. Plates (conical-bottomed 96-well plates) with three replicate wells per dilution, each containing 1% red blood cell suspension, were prepared and dosed with the test compound to achieve a final concentration of 400 μg/mL in a total volume of 100 μL. The plates were incubated (37 °C) for 60 min with mild agitation, and then the cells were pelleted by centrifugation at 1500 rpm for 5 min. The supernatants (50 μL) were then transferred to a fresh 96-well plate, and the concentration of hemoglobin was detected by measuring the OD at 405 nm. The OD of cells incubated with 1% SDS defined 100% hemolysis, while the OD of cells incubated with PBS buffer defined 0% hemolysis. The concentration tested was 400 μg/mL (only average values are stated in Table 5). The percent hemolysis was calculated by using the formula:(3) Hemolysis (%)=100×[Asample−Aneg.control/Apos.control−Aneg.control]

[12] = Antiproliferative activity on HepG2 cell line (MTT assay); format: cell-based; conditions: HepG2 cells; at 1280 µg/mL, value in parenthesis; read-out: HepG2 cell viability at highest concentration tested
Procedure: (§2) Effect of compounds on mammalian cell viability was estimated on the HepG2 cell line ATCC HB-8065. In brief, HepG2 cells were seeded into flat-bottomed 96-well plates at a concentration of 5000 cells per well. Subsequently, the cells were incubated for 24 h in a humidified incubator (5% CO2, 37 °C). Then, the medium was removed, and the cells were incubated for 48 h in a humidified incubator (5% CO2, 37 °C) with peptidomimetics in serial dilutions. Then, an 3-(4,5-dimethylthiazol-2-yl)-2,5-diphenyltetrazolium bromide (MTT) assay was performed as previously described. In brief, after incubation with the test compounds, the culture medium was removed, and then fresh medium with 0.2 mg/mL MTT was added into each well of the plate. The cells were then incubated (3 h, 37 °C, 5% CO2), followed by removal of the medium with MTT and addition of 200 μL dimethyl sulfoxide at once to each sample. Absorbance of MTT was measured using the spectrophotometer TECAN Infinite M1000 at 540 nm. The relative viability was calculated by using the formula: ODtreated cells × 100/ODcontrol cells. The IC50 values are calculated by using the program Graph Pad Prism® 5.0. For all compounds, the test range was 10–1280 μg/mL.

[13] = system: HepG2 cell line ATCC HB-8065; assay: as above; format: cell-based; conditions: inhibition of growth of HepG2 cells, 48 h, MTT; highest concentration tested 1280 µg/mL
Procedure: as §2

[14] = rat, in vivo; cited from earlier work
[15] = system: S. aureus ATCC 29213; format: cell-based, Staphylococcus aureus; conditions: ATCC 29213, 20 h
Procedure: as §1

Row | Molecule | MIC, AB [1] [µg/mL] | MIC, A. baumannii NMI 3658/17 [2] [µg/mL] | MIC, E. coli NMI 3371/16 [3] [µg/mL] | MIC, EC [4] [µg/mL] | MIC, E. coli NMI 3898/15 [5] [µg/mL] | MIC, KP ([6]; ATCC 13883, 20 h) [µg/mL] | MIC, EF [7] [µg/mL] | MIC, P. aeruginosa NMI 7197/19 [8] [µg/mL] | MIC, PA [9] [µg/mL] | % MeCN at Elution, Aeris Peptide [10] [% MeCN] | % MeCN at Elution, Luna [10] [% MeCN] | % MeCN at Elution, Luna Omega [10] [% MeCN] | % MeCN at Elution, Supelco Discovery [10] [% MeCN] | HepG2 IC50 [13] [µg/mL] | MIC, SA [15] [µg/mL] | MIC against E. coli [4] [µM] | MIC, KP [6] | hemolysis at 60 min [11] [%] | viability at 48 h [12] [%] | elimination half-life [14] [min]
1 | NCCCC[C@H](NC(=O)CCN(Cc1ccc(F)cc1)C(=O)[C@H](CCCCN)NC(=O)CCN(Cc1ccc(F)cc1)C(=O)[C@H](CCCCN)NC(=O)COCCOCCOCCNC(=O)CCN(Cc1ccc(F)cc1)C(=O)[C@H](CCCCN)NC(=O)CCN(Cc1ccc(F)cc1)C(=O)[C@H](CCCCN)NC(=O)CCN(Cc1ccc(F)cc1)C(=O)[C@@H](N)CCCCN)C(=O)N(CCC(N)=O)Cc1ccc(F)cc1 [Compound 8, H-[X]3-sPEG3-[X]3-NH2] | 4 to 8 | 4 (≈ 1.95 µM) | 4 (≈ 1.95 µM) | 4 (≈ 1.95 µM) | 8 (≈ 3.9 µM) | >64 | >64 | >64 | 32 (≈ 15.6 µM) | 39.6 | 41.7 | 42.1 | 41.9 | 601 |  |  |  | 8.9 | 10 | 
2 | VDKPPYLPRPRPIRrPGGr-NH2 [OM19r-8] |  |  |  |  |  |  |  |  |  |  |  |  |  |  |  |  |  |  |  | 1.6
3 | NCCCC[C@H](NC(=O)CCN(Cc1ccc(F)cc1)C(=O)[C@H](CCCCN)NC(=O)CCN(Cc1ccc(F)cc1)C(=O)[C@H](CCCCN)NC(=O)COCCNC(=O)CCN(Cc1ccc(F)cc1)C(=O)[C@H](CCCCN)NC(=O)CCN(Cc1ccc(F)cc1)C(=O)[C@H](CCCCN)NC(=O)CCN(Cc1ccc(F)cc1)C(=O)[C@@H](N)CCCCN)C(=O)N(CCC(N)=O)Cc1ccc(F)cc1 [Compound 6, H-[X]3-sPEG1-[X]3-NH2] | 4 to 8 | 4 (≈ 2.04 µM) | 4 (≈ 2.04 µM) | 4 (≈ 2.04 µM) | 8 (≈ 4.08 µM) |  |  | >64 | 32 (≈ 16.3 µM) | 39.2 | 41.2 | 41.6 | 41.4 | 761 | 32 to 64 |  | 64–>64 | 7.7 | 6 | 

Continued, in another order:

Row | MIC, AB [1] [µg/mL] | MIC, A. baumannii NMI 3658/17 [2] [µg/mL] | MIC, E. coli NMI 3371/16 [3] [µg/mL] | MIC, EC [4] [µg/mL] | MIC, E. coli NMI 3898/15 [5] [µg/mL] | MIC, KP ([6]; ATCC 13883, 20 h) [µg/mL] | MIC, EF [7] [µg/mL] | MIC, P. aeruginosa NMI 7197/19 [8] [µg/mL] | MIC, PA [9] [µg/mL] | % MeCN at Elution, Aeris Peptide [10] [% MeCN] | % MeCN at Elution, Luna [10] [% MeCN] | % MeCN at Elution, Luna Omega [10] [% MeCN] | % MeCN at Elution, Supelco Discovery [10] [% MeCN] | HepG2 IC50 [13] [µg/mL] | MIC, SA [15] [µg/mL] | MIC against E. coli [4] [µM] | MIC, KP [6] | Molecule | hemolysis at 60 min [11] [%] | viability at 48 h [12] [%] | elimination half-life [14] [min]
4 | 16 to 32 | 16 (≈ 7.14 µM) | 8 to 16 | 8 (≈ 3.57 µM) | 32 (≈ 14.3 µM) | >64 | >64 | >64 | >64 | 39.8 | 41.8 | 42.4 | 42.0 | ~1280 | >64 |  |  | NCCCC[C@H](NC(=O)CCN(Cc1ccc(F)cc1)C(=O)[C@H](CCCCN)NC(=O)COCCOCCOCCNC(=O)CCN(Cc1ccc(F)cc1)C(=O)[C@H](CCCCN)NC(=O)CCN(Cc1ccc(F)cc1)C(=O)[C@H](CCCCN)NC(=O)COCCOCCOCCNC(=O)CCN(Cc1ccc(F)cc1)C(=O)[C@H](CCCCN)NC(=O)CCN(Cc1ccc(F)cc1)C(=O)[C@@H](N)CCCCN)C(=O)N(CCC(N)=O)Cc1ccc(F)cc1 [Compound 17, H-[X]2-sPEG3-[X]2-sPEG3-[X]2-NH2] | 9.4 | 35 | 
5 | 8 to 16 | 16 (≈ 6.79 µM) | 8 to 16 | 4 to 8 | 16 (≈ 6.79 µM) | 64 (≈ 27.2 µM) | >64 | >64 | >64 | 40.1 | 42.1 | 42.7 | 42.3 | ~1280 | >64 | 1.2 to 2.4 |  | NCCCC[C@H](NC(=O)CCN(Cc1ccc(F)cc1)C(=O)[C@H](CCCCN)NC(=O)CCOCCOCCOCCOCCNC(=O)CCN(Cc1ccc(F)cc1)C(=O)[C@H](CCCCN)NC(=O)CCN(Cc1ccc(F)cc1)C(=O)[C@H](CCCCN)NC(=O)CCOCCOCCOCCOCCNC(=O)CCN(Cc1ccc(F)cc1)C(=O)[C@H](CCCCN)NC(=O)CCN(Cc1ccc(F)cc1)C(=O)[C@@H](N)CCCCN)C(=O)N(CCC(N)=O)Cc1ccc(F)cc1 [Compound 18, H-[X]2-sPEG4-[X]2-sPEG4-[X]2-NH2] | 8.3 | 41 | 
